Patent US20200038513A1, “MODULATORS OF FAK PROTEOLYSIS AND ASSOCIATED METHODS OF USE” (ARVINAS OPERATIONS, INC., priority 2018, published 2020)

System: MDA-MB-231 cells
Assay: RPPA (reverse phase protein array)
Assay type: cell-based, human
Conditions: 500nM
Method: RPPA analysis was performed by MD Anderson Cancer Center RPPA core facility.
Examination of the Molecular Signaling Events) and/or Downstream Pathways Responsible for the Migration and Invasion Effects Observed by Exemplary Compound Treatment. To pinpoint these observations to a molecular signaling event or specific downstream pathway, reverse phase protein array (RPPA) analysis was performed (Table 4).

Cc1ncsc1-c1ccc(CNC(=O)[C@@H]2C[C@@H](O)CN2C(=O)[C@@H](NC(=O)CCOCCOc2ccc(Nc3ncc(C(F)(F)F)c(NCc4cccc(N(C)S(C)(=O)=O)c4)n3)cc2)C(C)(C)C)cc1 [Compound 102, (2S,4R)-1-((S)-3,3-dimethyl-2-(3-(2-(4-((4-((3-(N-methylmethylsulfonamido)benzyl)amino)-5-(trifluoromethyl)pyrimidin-2-yl)amino)phenoxy)ethoxy)propanamido)butanoyl)-4-hydroxy-N-(4-(4-methylthiazol-5-yl)benzyl)pyrrolidine-2-carboxamide]
rel. Protein level, Mnk1: 97.2% | rel. Protein level, Myosin-11: 101.0% | rel. Protein level, Myosin-IIa_pS1943: 113.7% | rel. Protein level, Myt1: 93.2% | rel. Protein level, N-Cadherin: 104.0% | rel. Protein level, N-Ras: 98.6% | rel. Protein level, NAPSIN-A: 99.4% | rel. Protein level, NDRG1_pT346: 118.1% | rel. Protein level, NDUFB4: 100.5% | rel. Protein level, NF-kB-p65_pS536: 108.3% | rel. Protein level, Notch1: 105.8% | rel. Protein level, Notch3: 112.1% | rel. Protein level, Oct-4: 102.3% | rel. Protein level, P-Cadherin: 108.3% | rel. Protein level, PAI-1: 106.1% | rel. Protein level, PAICS: 98.1% | rel. Protein level, PAK1: 106.0% | rel. Protein level, PAK4: 95.1% | rel. Protein level, PAR: 158.2% | rel. Protein level, PARP: 104.5% | rel. Protein level, PCNA: 97.5% | rel. Protein level, PD-1: 98.8% | rel. Protein level, PD-L1: 95.8% | rel. Protein level, PDGFR-b: 124.5% | rel. Protein level, PDHK1: 102.2% | rel. Protein level, PDK1: 99.6% | rel. Protein level, PDK1_pS241: 103.2% | rel. Protein level, PEA-15: 97.9% | rel. Protein level, PEA-15_pS116: 98.0% | rel. Protein level, PI3K-p85: 100.1% | rel. Protein level, PI3K-p110-a: 107.4% | rel. Protein level, PI3K-p110-b: 94.8% | rel. Protein level, PKA-a: 105.1% | rel. Protein level, PKC-b-II_pS660: 93.7% | rel. Protein level, PKC-delta_pS664: 98.8% | rel. Protein level, PKCa: 113.3% | rel. Protein level, PKM2: 105.8% | rel. Protein level, PLC-gamma2_pY759: 97.9% | rel. Protein level, PLK1: 95.0% | rel. Protein level, PMS2: 96.4% | rel. Protein level, PR: 96.8% | rel. Protein level, PRAS40: 104.0% | rel. Protein level, PRAS40_pT246: 92.3% | rel. Protein level, PREX1: 102.5% | rel. Protein level, PTEN: 124.6% | rel. Protein level, Paxillin: 91.8% | rel. Protein level, Pdcd4: 120.2% | rel. Protein level, Porin: 97.8% | rel. Protein level, RBM15: 105.1% | rel. Protein level, RIP: 105.6% | rel. Protein level, RPA32: 98.4% | rel. Protein level, RPA32_pS4-S8: 102.8% | rel. Protein level, RSK: 99.0% | rel. Protein level, Rab11: 102.8% | rel. Protein level, Rab25: 100.2% | rel. Protein level, Rad50: 103.9% | rel. Protein level, Rad51: 89.6% | rel. Protein level, Raptor: 103.3% | rel. Protein level, Rb: 106.3% | rel. Protein level, Rb_pS807_S811: 92.3% | rel. Protein level, Rheb: 103.3% | rel. Protein level, Rictor: 126.9% | rel. Protein level, Rictor_pT1135: 92.3% | rel. Protein level, S6: 112.2% | rel. Protein level, S6_pS235_S236: 57.3% | rel. Protein level, S6_pS240_S244: 51.9% | rel. Protein level, b-Actin: 97.4% | rel. Protein level, b-Catenin: 108.4% | rel. Protein level, b-Catenin_pT41_S45: 96.8% | rel. Protein level, c-Abl: 95.2% | rel. Protein level, c-IAP2: 100.4% | rel. Protein level, c-Jun_pS73: 92.3% | rel. Protein level, c-Kit: 100.1% | rel. Protein level, c-Met_pY1234_Y1235: 101.1% | rel. Protein level, c-Myc: 89.2% | rel. Protein level, cdc2_pY15: 92.3%
